Measured values published in article PMC7508416 (Chemical research in toxicology, 2020).
Read-outs that look alike come from different tables or passages of the source. Marks after values point to notes of the source that are not given here.

Tests used:
[1] = for % Depletion: after 60 min (Eq. 1); for Percentage of Initial Parent Administration (Mean ± Std Dev): Total: parents plus quantified metabolites; for Initial parent mass unaccounted for after quantifying suspected metabolites: metabolites with authentic standards available
[2] = for Depletion rate, slope, first-order kinetics / Depletion rate, slope, zero-order kinetics: linear regression
[3] = set-up: species or system human; settings: pooled urine of children aged 3-6; tentative, exact mass match
[4] = gavage of a technical mixture containing 35% 2IPPDPP; cited from earlier work
[5] = 2 μM; herring gull liver microsomes; cited from earlier work
[6] = cited from earlier work
[7] = human liver microsomes; cited from earlier work
[8] = polar bear liver microsomes; cited from earlier work
[9] = cited from earlier work; remark: listed apart in the source
[10] = cited from earlier work; remark: listed apart in the source
[11] = 1 μM, s9 & sulfatase & glucuronidase
[12] = 10 μM, s9 & sulfatase & glucuronidase

| Molecule | Percentage of Initial Parent Administration (Mean ± Std Dev): parent compound ([1]; 1 μM, Abiotic Control) [%] | % Depletion ([1]; 1 μM, Abiotic Control) [%] | Percentage of Initial Parent Administration (Mean ± Std Dev): parent compound ([1]; 1 μM, Heat-inactivated s9) [%] | % Depletion ([1]; 1 μM, Heat-inactivated s9) [%] | Percentage of Initial Parent Administration (Mean ± Std Dev): parent compound ([1]; 1 μM, s9) [%] | Percentage of Initial Parent Administration (Mean ± Std Dev): parent compound ([1]; 1 μM, s9 & glucuronidase) [%] | % Depletion ([1]; 1 μM, s9 & glucuronidase) [%] | Percentage of Initial Parent Administration (Mean ± Std Dev): parent compound ([1]; 1 μM, s9 & sulfatase) [%] | % Depletion ([1]; 1 μM, s9 & sulfatase) [%] | % Depletion ([1]; 1 μM, s9) [%] | Percentage of Initial Parent Administration (Mean ± Std Dev): parent compound ([1]; 1 μM, unprocessed spike) [%] | Percentage of Initial Parent Administration (Mean ± Std Dev): Total ([1]; 1 μM, unprocessed spike) [%] | Percentage of Initial Parent Administration (Mean ± Std Dev): parent compound ([1]; 10 μM, Abiotic Control) [%] | % Depletion ([1]; 10 μM, Abiotic Control) [%] | Percentage of Initial Parent Administration (Mean ± Std Dev): parent compound ([1]; 10 μM, Heat-inactivated s9) [%] | % Depletion ([1]; 10 μM, Heat-inactivated s9) [%] | Percentage of Initial Parent Administration (Mean ± Std Dev): parent compound ([1]; 10 μM, s9) [%] | Percentage of Initial Parent Administration (Mean ± Std Dev): parent compound ([1]; 10 μM, s9 & glucuronidase) [%] | % Depletion ([1]; 10 μM, s9 & glucuronidase) [%] | % Depletion ([1]; 10 μM, s9 & sulfatase) [%] | other results |
| --- | --- | --- | --- | --- | --- | --- | --- | --- | --- | --- | --- | --- | --- | --- | --- | --- | --- | --- | --- | --- | --- |
| CC(C)c1ccccc1OP(=O)(Oc1ccccc1)Oc1ccccc1 [2IPPDPP, 2-isopropylphenyl diphenyl phosphate] | 105 ± 20 | 0 | 101 ± 8 | 0 | 56 ± 10 | 65 ± 3 | 35 | 64 ± 6 | 36 | 44 | 100 ± 13 | 100 ± 13 | 103 ± 10 | 0 | 103 ± 11 | 0 | 77 ± 5 | 82 ± 3 | 18 | 20 | Percentage of Initial Parent Administration (Mean ± Std Dev): parent compound [1, 11]: 67 ± 4%; % Depletion [1, 11]: 33%; Percentage of Initial Parent Administration (Mean ± Std Dev): parent compound [1, 12]: 84 ± 4%; % Depletion [1, 12]: 16%; % Depletion ([1]; 10 μM, s9): 23%; Percentage of Initial Parent Administration (Mean ± Std Dev): parent compound ([1]; 10 μM, unprocessed spike): 100 ± 9%; Initial parent mass unaccounted for after quantifying suspected metabolites [1]: approximately 20%; Depletion rate, slope, first-order kinetics ([2]; 1 μM dose): −0.010 ln[nmol]/min/mg protein; Depletion rate, slope, zero-order kinetics ([2]; 1 μM dose): −0.013 ^* nmol/min/mg protein; Depletion rate, slope, first-order kinetics ([2]; 10 μM dose): −0.0048 ln[nmol]/min/mg protein; Depletion rate, slope, zero-order kinetics ([2]; 10 μM dose): −0.092 nmol/min/mg protein |
| hydroxy-o-isopropylphenyl diphenyl phosphate [Hydroxylated 2IPPDPP] |  |  |  |  |  |  |  |  |  |  |  |  |  |  |  |  |  |  |  |  | Detection in human urine samples (number of samples out of 9) [3]: not detected |
| 2-phenyl-4H,−4,4-dimethyl-1,1,3,2 -benzodioxapho-sphoran-2-oxide |  |  |  |  |  |  |  |  |  |  |  |  |  |  |  |  |  |  |  |  | Detection in rabbit bile [4]: detected; Detection in human urine samples (number of samples out of 9) [3]: 1 |
| mono-isopropenylphenyl diphenyl phosphate |  |  |  |  |  |  |  |  |  |  |  |  |  |  |  |  |  |  |  |  | Detection in human urine samples (number of samples out of 9) [3]: 1 |
| C=C(C)c1ccccc1OP(=O)(Oc1ccccc1)Oc1ccccc1 [mono-(o-isopropenylphenyl)-diphenyl phosphate] |  |  |  |  |  |  |  |  |  |  |  |  |  |  |  |  |  |  |  |  | Detection in rabbit bile [4]: detected |
| O=P(Oc1ccccc1)(Oc1ccccc1)Oc1ccccc1 [TPHP, triphenyl phosphate, reference compound] | 94 ± 7 | 6 | 88 ± 2 | 12 | 31 ± 2 | 31 ± 3 | 69 | 23 ± 1 | 77 | 69 | 100 ± 5 | 100 ± 5 | 95 ± 1 | 5 | 94 ± 1 | 6 | 68 ± 1 | 67 ± 1 | 33 | 37 | Depletion rate [5]: 22 pmol/min/mg; Mass of parent lower in the +S9 treatment compared to the unprocessed spike ([1]; 1 μM): 69–77%; Mass of parent lower in the +S9 treatment compared to the unprocessed spike ([1]; 10 μM): 32–37%; Percentage of Initial Parent Administration (Mean ± Std Dev): parent compound ([1]; 10 μM, s9 & sulfatase): 63 ± 0.2%; % Depletion ([1]; 10 μM, s9): 32%; Percentage of Initial Parent Administration (Mean ± Std Dev): parent compound ([1]; 10 μM, unprocessed spike): 100 ± 1%; Initial parent depleted in the abiotic control group ([1]; both doses): 5–6%; OH-TPHP glucuronide conjugates, share of the initial TPHP treatment [6]: 65%; Percentage of DPHP formation following incubation [7]: 22%; Depletion rate ([2]; 1 μM dose): 24 pmol/min/mg; Depletion rate, slope, first-order kinetics ([2]; 1 μM dose): −0.032 ^* ln[nmol]/min/mg protein; Depletion rate, slope, zero-order kinetics ([2]; 1 μM dose): −0.024 nmol/min/mg protein; Depletion rate, slope, first-order kinetics ([2]; 10 μM dose): −0.0030 ln[nmol]/min/mg protein; Depletion rate, slope, zero-order kinetics ([2]; 10 μM dose): −0.032 nmol/min/mg protein; Percentage of DPHP formation following incubation [8]: 97% |
| CC(C)c1ccccc1OP(=O)(Oc1ccccc1C(C)C)Oc1ccccc1C(C)C [T2IPPP] |  |  |  |  |  |  |  |  |  |  |  |  |  |  |  |  |  |  |  |  | DPHP formation following incubation ([9]; ref Strobel et al., 2018): not detected |
| CC(C)c1ccc(OP(=O)(Oc2ccccc2)Oc2ccccc2)cc1 [4IPPDPP, 4-isopropylphenyl diphenyl phosphate] | 108 ± 23 | 0 | 82 ± 5 | 18 | 27 ± 4 | 27 ± 1 | 73 | 29 ± 3 | 71 | 73 | 100 ± 2 | 100 ± 13 | 94 ± 6 | 6 | 97 ± 10 | 3 | 55 ± 3 | 57 ± 2 | 43 | 46 | Percentage of Initial Parent Administration (Mean ± Std Dev): parent compound [1, 11]: 32 ± 3%; % Depletion [1, 11]: 68%; Percentage of Initial Parent Administration (Mean ± Std Dev): parent compound ([1]; 10 μM, s9 & sulfatase): 54 ± 1%; Percentage of Initial Parent Administration (Mean ± Std Dev): parent compound [1, 12]: 55 ± 4%; % Depletion [1, 12]: 45%; % Depletion ([1]; 10 μM, s9): 45%; Percentage of Initial Parent Administration (Mean ± Std Dev): parent compound ([1]; 10 μM, unprocessed spike): 100 ± 3%; Initial parent mass unaccounted for after quantifying suspected metabolites [1]: approximately 20%; Depletion rate, slope, first-order kinetics ([2]; 1 μM dose): −0.015 ln[nmol]/min/mg protein; Depletion rate, slope, zero-order kinetics ([2]; 1 μM dose): −0.042 nmol/min/mg protein; Depletion rate, slope, first-order kinetics ([2]; 10 μM dose): −0.0034 ln[nmol]/min/mg protein; Depletion rate, slope, zero-order kinetics ([2]; 10 μM dose): −0.097 nmol/min/mg protein |
| O=P(O)(Oc1ccccc1)Oc1ccccc1 [DPHP, diphenyl phosphate] |  |  |  |  |  |  |  |  |  |  |  |  |  |  |  |  |  |  |  |  | Geometric mean urinary concentration [10]: around 10 nM |
| CC(C)(C)c1ccc(OP(=O)(Oc2ccccc2)Oc2ccccc2)cc1 [4tBPDPP, 4-tert-butylphenyl diphenyl phosphate] | 84 ± 8 | 9 | 81 ± 6 | 12 | 59 ± 11 | 56 ± 5 | 43 | 61 ± 5 | 39 | 41 | 92 ± 4 | 100 ± 4 | 81 ± 1 | 8 | 79 ± 11 | 12 | 83 ± 2 | 72 ± 5 | 23 | 23 | Parent converted to DPHP ([9]; 2 μM, 100-min incubation): 41%; Percentage of Initial Parent Administration (Mean ± Std Dev): parent compound [1, 11]: 60 ± 6%; % Depletion [1, 11]: 39%; Percentage of Initial Parent Administration (Mean ± Std Dev): parent compound ([1]; 10 μM, s9 & sulfatase): 73 ± 9%; Percentage of Initial Parent Administration (Mean ± Std Dev): parent compound [1, 12]: 71 ± 6%; % Depletion [1, 12]: 25%; % Depletion ([1]; 10 μM, s9): 12%; Percentage of Initial Parent Administration (Mean ± Std Dev): parent compound ([1]; 10 μM, unprocessed spike): 89 ± 1%; Percent depletion lower than that of TPHP ([1]; human, pH 7.4): 30–45%; Depletion rate, slope, first-order kinetics ([2]; 1 μM dose): −0.013 ln[nmol]/min/mg protein; Depletion rate, slope, zero-order kinetics ([2]; 1 μM dose): −0.031 nmol/min/mg protein; Depletion rate, slope, first-order kinetics ([2]; 10 μM dose): −0.0013 ln[nmol]/min/mg protein; Depletion rate, slope, zero-order kinetics ([2]; 10 μM dose): −0.082 nmol/min/mg protein |
